# Assay results taken from patent US11111222B2, “Hydroxyeicosatrienoic acid compounds and their use as therapeutic agents” (THE REGENTS OF THE UNIVERSITY OF MICHIGAN, priority 2016, dated 2021).
# Tests used:
# [1] = test system: washed human platelets; experiment: Human platelet aggregation after pre-treatment with adenylyl cyclase inhibitor SQ 22536; assay type: cell-based; details: platelets pre-treated with SQ 22536 (25 μM, 20 min); 12-HETrE 7.5 to 25 μM, 1 min; EC80 PAR4-AP
# Description: Blood from healthy donors was collected into vacutainers containing buffered sodium citrate, and platelets were isolated by serial centrifugation as described above for mouse platelets. The platelets were resuspended in Tyrode's buffer at 3×10^8 platelets/mL, unless otherwise specified.
# A lumi-aggregometer (Chrono-log model 700D) was used to measure platelet aggregation under stirring conditions (1100 rpm) at 37° C. […]
# [2] = test system: Gαs; experiment: [35S]GTPγS binding to immunoprecipitated Gαs, platelet membranes; assay type: biochemical; details: 25 μM; human platelet membranes; vs DMSO
# Description: PRP was isolated from whole blood as described above and then incubated with 1 mM aspirin for 1 hour at 37° C. Platelets were pelleted at 2000 g for 10 min in the presence of 10×ACD and apyrase. The pelleted platelets were washed with Tyrode's and centrifuged at 2000×g with 10×ACD for 10 min at room temperature. The platelets were flash frozen with liquid nitrogen and then resuspended in cold detergent-free TME buffer (50 mM Tris-HCl, pH 7.5, 20 mM MgCl2, 2 mM EDTA, and 100 mM NaCl) with 1 μM GDP and protease and phosphatase inhibitors to lyse the platelets. The lysed platelets were centrifuged at 1500 g at 4° C. for 5 min. The supernatant was collected and centrifuged at 100,000×g for 30 min at 4° C. The pelleted membranes were resuspended in TME buffer with 1 μM GDP and stored at −80° C. prior to use. Fatty acid metabolites, agonists, or DMSO and [^35S]GTPγS (10 nM) were added to platelet membranes (60 μg/reaction) on ice, and the tubes were immediately transferred to a 30° C. water bath shaker for 20 min. The reaction was terminated by the addition of ice-cold IP buffer (50 mM Tris-HCl, pH 7.5, 20 mM MgCl2, 150 mM NaCl, 0.5% Nonidet P-40, 0.33% aprotinin, 0.1 mM GDP, and 0.1 mM GTP). The samples were pre-cleared with Protein A agarose beads and normal rabbit IgG for 30 min on a nutator at 4° C. and then aliquoted equally into two tubes containing either normal rabbit IgG or a Gs antibody that had been conjugated to Protein A agarose beads. The samples were incubated on a nutator for 1 hr at 4° C. and washed 4 times with IP buffer and 1 time in TME buffer. The samples were boiled in 0.5% SDS for 30 sec, and the supernatants were collected following brief centrifugation. The supernatants were analyzed in 8 mL of scintillation fluid. The background counts for the normal rabbit IgG (50-200 cpm) for each sample were subtracted from the anti-Gs immunoprecipitated samples prior to analyzing the data.
# [3] = Tail bleeding assay; assay type: in vivo, mouse; details: mice retro-orbitally injected; 5 mm tail tip excised; vs control
# Description: Mice were anesthetized with ketamine/xyzaline and placed on a heating pad in prone position, the tip of the tail (5 mm) was excised with a sterile scalpel, and the tails were immediately immersed into isotonic saline solution (0.9%) warmed to 37° C. Bleeding time was assessed until cessation of blood flow from the tail for 1 minute.
# [4] = test system: thrombus formation (platelet and fibrin) in cremaster arterioles; experiment: Laser-induced cremaster arteriole thrombosis model; assay type: in vivo, mouse
# Description: Wild type (WT) or 12-LOX^−/− mice (12 weeks of age) were anesthetized by intraperitoneal injection of ketamine/xylazine (100 mg/kg) prior to the exposure of the cremaster muscle arterioles under a dissecting microscope with constant perfusion of preheated bicarbonate-buffered saline (Reheman et al., J Thromb Haemost 3:875-883, 2005; Reheman et al., Blood 113:1809-1817, 2009; Wang et al., J Clin Invest 124:4281-4293, 2014). Anti-platelet (DyLight 488 anti-GPIb, 1 μg/g) and anti-fibrin (Alexa Fluor 647, 0.3 μg/g) antibodies were administered via jugular vein catheter prior to intravital microscopy. DGLA (50 mg/kg) or DMSO (vehicle control) were dissolved in a formulation of 5% DMSO and 45% PEG300 in sterile 1×PBS and then intravenously injected into mice 10 minutes prior to induction of thrombosis. 12(S)-HETrE (6 mg/kg) or equal volume of DMSO (vehicle control) was also intravenously injected into mice 10 minutes prior to induction of thrombosis. Multiple independent thrombi were induced in the arterioles (30-50 μm diameter) in each mouse by a laser ablation system (Ablate! photoablation system; Intelligent Imaging Innovations, Denver, Colo., USA). Images of thrombus formation were acquired in real-time under 63× water-immersion objective with a Zeiss Axio Examiner Z1 fluorescent microscope equipped with solid laser launch system (LaserStack; Intelligent Imaging Innovations) and high-speed sCMOS camera. All captured images were analyzed on Slidebook (Intelligent Imaging Innovations Inc., Denver, Colo., USA).
# [5] = WT mice, 6 mg/kg i.v. 10 min before laser injury, vs vehicle
compound,measurement,setting,value
"CCCCC/C=C\C[C@H](O)/C=C/C=C\CCCCCCC(=O)O [12(S)-HETrE, 12(S)-hydroxy-8Z,10E,14Z-eicosatrienoic acid]",PAR4-AP-mediated platelet aggregation,[1],unable to inhibit PAR4-AP-mediated platelet aggregation
same,[35S]GTPγS binding to immunoprecipitated Gαs,[2],significant increase in [^35S]GTPγS binding
same,tail bleeding time,[3],no significant difference in tail bleeding time
same,platelet accumulation,"[4]; 12-LOX−/− mice, 6 mg/kg i.v., vs 12-LOX−/− alone",significant inhibition of platelet accumulation
same,fibrin accumulation,"[4]; 12-LOX−/− mice, 6 mg/kg i.v., vs vehicle",no difference in fibrin accumulation
same,thrombus size and stability by fibrin accumulation,[4]; [5],significantly smaller and less stable thrombi
same,thrombus size and stability by platelet accumulation,[4]; [5],significantly smaller and less stable thrombi
